Key:
HCT-116 [1] = assay: Reversal of 5-FU resistance against 5-FU resistant DPD expressed human HCT-116 cells assessed as reduction in cell viability incubated for 48 hrs in presence of 5-FU by MTT assay; format: functional, cell-based; settings: HCT-116, 48 h
SW620/5-FU [2] = assay: Reversal of 5-FU resistance against human SW620/5-FU cells assessed as reduction in cell viability incubated for 48 hrs in presence of 5-FU by MTT assay; format: functional, cell-based
[3] = biological target: T1, Sphingosine 1-phosphate receptor 2 (Homo sapiens, UniProt O95136); assay: Binding affinity to S1PR2 (unknown origin) by SPR assay
T1 sequence (O95136 whole entry): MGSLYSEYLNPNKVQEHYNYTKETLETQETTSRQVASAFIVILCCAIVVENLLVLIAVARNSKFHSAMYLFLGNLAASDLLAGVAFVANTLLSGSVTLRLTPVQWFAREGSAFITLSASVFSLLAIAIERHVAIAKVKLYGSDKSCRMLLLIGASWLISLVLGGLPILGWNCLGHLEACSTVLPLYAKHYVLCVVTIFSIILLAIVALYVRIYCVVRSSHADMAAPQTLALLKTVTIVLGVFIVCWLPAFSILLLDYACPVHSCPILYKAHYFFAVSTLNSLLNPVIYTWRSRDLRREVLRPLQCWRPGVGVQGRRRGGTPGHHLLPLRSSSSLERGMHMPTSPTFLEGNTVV

[4] = biological target: T1, Sphingosine 1-phosphate receptor 2; assay: Antagonist activity at S1PR2 in human SW620/5-FU cells assessed as reduction of DPD-catalyzed 5-FU degradation by measuring intracellular 5-FU level at 20 uM measured after 24 hrs by HPLC-UV analysis; format: functional, cell-based; settings: filed as antagonist
HCT-116 [5] = assay: Antitumor activity against DPD expressed human HCT-116 cells xenografted in SPF nude mouse assessed as tumor growth inhibition at 15 mg/kg, iv QD for 20 days and measured every 4 days; format: functional; settings: HCT-116, 480 h, time 20 day, read-out: TGI
HCT-116 [6] = assay: Antiproliferative activity against 5-FU resistant DPD expressed human HCT-116 cells assessed as reduction in cell viability incubated for 48 hrs by MTT assay; format: functional, cell-based; settings: HCT-116, 48 h
SW620/5-FU [7] = assay: Antitumor activity against human SW620/5-FU cells xenografted in SPF nude mouse assessed as reduction in tumor weight at 15 mg/kg, iv QD for 21 days; format: functional; set-up: scale not given: the % may be the effect or the level left; settings: time 21 day
SW620/5-FU [8] = assay: Antitumor activity against human SW620/5-FU cells xenografted in SPF nude mouse assessed as tumor growth inhibition at 15 mg/kg, iv QD for 21 days and measured every 4 days; format: functional; settings: 504 h, time 21 day, read-out: TGI
SW620/5-FU [9] = assay: Antiproliferative activity against human SW620/5-FU cells assessed as reduction in cell viability incubated for 48 hrs by MTT assay; format: functional, cell-based

CCCc1cc(NNC(=O)Nc2cc(Cl)nc(Cl)c2)nc2c1c(C)nn2C
EC50 (HCT-116 [1]): 72.2 µM
EC50 (SW620/5-FU [2]): 40.8 µM
Kd [3]: 2.36 µM

CCCCOc1cc(NC(=O)NNc2cc(-c3ccc(F)cc3)c3cnn(C)c3n2)cc(Cl)n1
EC50 (HCT-116 [1]): 49.4 µM
EC50 (SW620/5-FU [2]): 29.3 µM
Kd [3]: 2.65 µM

Cc1nn(C)c2nc(NNC(=O)Nc3cc(Cl)nc(Cl)c3)cc(C3CCCCC3)c12
EC50 (HCT-116 [1]): 38 µM
EC50 (SW620/5-FU [2]): 22 µM
Kd [3]: 2.01 µM

Cc1nn(C)c2nc(NNC(=O)Nc3cc(Cl)nc(Cl)c3)cc(-c3ccco3)c12
EC50 (HCT-116 [1]): 69.2 µM
EC50 (SW620/5-FU [2]): > 100 µM
Kd [3]: 6.52 µM

Cc1cc(NNC(=O)Nc2cc(Cl)nc(Cl)c2)nc2c1c(C)nn2C
EC50 (HCT-116 [1]): > 100 µM
EC50 (SW620/5-FU [2]): > 100 µM
Kd [3]: 11 µM

CC(C)c1cc(NNC(=O)Nc2cc(Cl)nc(Cl)c2)nc2c1cnn2C
EC50 (HCT-116 [1]): 17.2 µM
EC50 (SW620/5-FU [2]): 50.1 µM
Kd [3]: 0.78 µM

Cn1ncc2c(-c3ccccc3)cc(NNC(=O)Nc3cc(Cl)nc(Cl)c3)nc21
EC50 (HCT-116 [1]): 6.24 µM
EC50 (SW620/5-FU [2]): 76.9 µM
Kd [3]: 1.02 µM

CCCc1cc(NNC(=O)Nc2cc(Cl)nc(Cl)c2)nc2c1cnn2C
EC50 (HCT-116 [1]): 76.2 µM
EC50 (SW620/5-FU [2]): 38.7 µM
Kd [3]: 1.4 µM

Cc1ccc(NC(=O)NNc2cc(-c3ccc(F)cc3)c3cnn(C)c3n2)cc1Nc1nccc(-c2cccnc2)n1
EC50 (HCT-116 [1]): 39.1 µM
EC50 (SW620/5-FU [2]): 33.1 µM
Kd [3]: 5.96 µM

Cc1nn(C)c2nc(NNC(=O)Nc3cc(Cl)nc(Cl)c3)cc(-c3ccc(F)cc3)c12
EC50 (HCT-116 [1]): 25.2 µM
EC50 (SW620/5-FU [2]): 17.4 µM
Kd [3]: 0.98 µM

Cc1nn(C)c2nc(NNC(=O)Nc3cc(Cl)nc(Cl)c3)cc(C(C)C)c12
EC50 (HCT-116 [1]): 18.3 µM
EC50 (SW620/5-FU [2]): 58.6 µM
Activity [4]: 1.75 µM
Kd [3]: 1.96 µM

COc1ccc(-c2cc(NNC(=O)Nc3cc(Br)nc(Br)c3)nc3c2cnn3C)cc1
EC50 (HCT-116 [1]): 45.2 µM
EC50 (SW620/5-FU [2]): 54.1 µM
Kd [3]: 6.32 µM

Cn1ncc2c(-c3ccc(F)cc3)cc(NNC(=O)Nc3cc(Cl)nc(OCCF)c3)nc21
EC50 (HCT-116 [1]): 37.2 µM
EC50 (SW620/5-FU [2]): 29.3 µM
Kd [3]: 2.79 µM

Cn1ncc2c(-c3ccc(F)cc3)cc(NNC(=O)Nc3cc(Cl)cc(Cl)c3)nc21
EC50 (HCT-116 [1]): 39.1 µM
EC50 (SW620/5-FU [2]): 54.3 µM
Kd [3]: 4.98 µM

COc1cc(NC(=O)NNc2cc(-c3ccccc3)c3cnn(C)c3n2)cc(Cl)n1
EC50 (HCT-116 [1]): 31.2 µM
EC50 (SW620/5-FU [2]): 28.7 µM
Kd [3]: 3.64 µM

Cc1nn(C)c2nc(NNC(=O)Nc3cc(Cl)nc(Cl)c3)cc(-c3ccc(Cl)s3)c12
EC50 (HCT-116 [1]): 42.1 µM
EC50 (SW620/5-FU [2]): 29.4 µM
Kd [3]: 1.98 µM

COc1ccc(-c2cc(NNC(=O)Nc3cc(Cl)nc(OC)c3)nc3c2cnn3C)cc1
EC50 (HCT-116 [1]): 54.2 µM
EC50 (SW620/5-FU [2]): 48.8 µM
Kd [3]: 1.98 µM

COc1ccc(-c2cc(NNC(=O)Nc3cc(Cl)nc(Cl)c3)nc3c2c(C)nn3C)cc1
EC50 (HCT-116 [1]): 82.3 µM
EC50 (SW620/5-FU [2]): 9.7 µM
Kd [3]: 1.02 µM

CC(C)c1cc(NNC(=O)Nc2cc(Cl)nc(Cl)c2)nc2c1c(C(F)(F)F)nn2C
EC50 (HCT-116 [1]): 27.2 µM
EC50 (SW620/5-FU [2]): 19.1 µM
Kd [3]: 1.25 µM

COc1ccc(-c2cc(NNC(=O)Nc3cc(Cl)nc(Cl)c3)nc3c2cnn3C)cc1
EC50 (HCT-116 [1]): 12.3 µM
EC50 (SW620/5-FU [2]): 18.4 µM
Kd [3]: 0.52 µM

CCCc1cc(NNC(=O)Nc2cc(Cl)nc(Cl)c2)nc2c1c(C(F)(F)F)nn2C
EC50 (HCT-116 [1]): 38.2 µM
EC50 (SW620/5-FU [2]): 11.7 µM
Kd [3]: 0.89 µM

COc1ccc(-c2cc(NNC(=O)Nc3cc(Cl)nc(OC(C)C)c3)nc3c2cnn3C)cc1
EC50 (HCT-116 [1]): 39.8 µM
EC50 (SW620/5-FU [2]): 47.1 µM
Kd [3]: 2.32 µM

CCN(CC)c1cc(NC(=O)NNc2cc(-c3ccc(F)cc3)c3cnn(C)c3n2)cc(Cl)n1
EC50 (HCT-116 [1]): 29.4 µM
EC50 (SW620/5-FU [2]): 37 µM
Kd [3]: 3.15 µM

Cn1ncc2c(-c3ccc(F)cc3)cc(NNC(=O)N/C=C/c3cccnc3)nc21
EC50 (HCT-116 [1]): 36.2 µM
EC50 (SW620/5-FU [2]): 49.3 µM
Kd [3]: 4.12 µM

COc1cc(NC(=O)NNc2cc(-c3ccc(F)cc3)c3cnn(C)c3n2)cc(OC)c1OC
EC50 (HCT-116 [1]): 45.3 µM
EC50 (SW620/5-FU [2]): 39.2 µM
Kd [3]: 4.44 µM

CCCOc1cc(NC(=O)NNc2cc(-c3ccc(OC)cc3)c3cnn(C)c3n2)cc(Cl)n1
EC50 (HCT-116 [1]): 33.2 µM
EC50 (SW620/5-FU [2]): 37.2 µM
Kd [3]: 3.14 µM

Cn1ncc2c(-c3ccc(F)cc3)cc(NNC(=O)Nc3cc(F)cc(F)c3)nc21
EC50 (HCT-116 [1]): 46.2 µM
EC50 (SW620/5-FU [2]): 47.4 µM
Kd [3]: 3.98 µM

Cc1nn(C)c2nc(NNC(=O)Nc3cc(Cl)nc(Cl)c3)cc(C3CC3)c12
EC50 (HCT-116 [1]): 67.7 µM
EC50 (SW620/5-FU [2]): 80.8 µM
Kd [3]: 3.65 µM

Cc1c(Cc2ccccc2)c(NNC(=O)Nc2cc(Cl)nc(Cl)c2)nc2c1cnn2C
EC50 (HCT-116 [1]): 13.6 µM
EC50 (SW620/5-FU [2]): 21.4 µM
Kd [3]: 0.87 µM

Cc1nn(C)c2nc(NNC(=O)Nc3cc(Cl)nc(Cl)c3)cc(-c3ccccc3)c12
EC50 (HCT-116 [1]): 80 µM
EC50 (SW620/5-FU [2]): 22.9 µM
Kd [3]: 5.32 µM

CCCCOc1cc(NC(=O)NNc2cc(-c3ccc(OC)cc3)c3cnn(C)c3n2)cc(Cl)n1
EC50 (HCT-116 [1]): 36.5 µM
EC50 (SW620/5-FU [2]): 39.2 µM
Kd [3]: 4.15 µM

COc1cc(NC(=O)NNc2cc(-c3ccc(F)cc3)c3cnn(C)c3n2)cc(Cl)n1
EC50 (HCT-116 [1]): 75.3 µM
EC50 (SW620/5-FU [2]): 24.1 µM
Kd [3]: 1.65 µM

O=c1[nH]cc(F)c(=O)[nH]1 [FLUOROURACIL]
inhibition in vivo at 15 mg/kg (HCT-116 [5]): 20.3%
EC50 (HCT-116 [6]): > 1000 µM
Activity (SW620/5-FU [7]): 27.23%
inhibition in vivo at 15 mg/kg (SW620/5-FU [8]): 21.2%
EC50 (SW620/5-FU [9]): > 1000 µM

Cn1nc(C(F)(F)F)c2c(-c3ccccc3)cc(NNC(=O)Nc3cc(Cl)nc(Cl)c3)nc21
EC50 (HCT-116 [1]): 18.1 µM
EC50 (SW620/5-FU [2]): 13.1 µM
Kd [3]: 0.94 µM

From ChEMBL document CHEMBL5120746, “Novel 5-fluorouracil sensitizers for colorectal cancer therapy: Design and synthesis of S1P receptor 2 (S1PR2) antagonists” (Eur J Med Chem, 2022)
